These results are taken from PubChem BioAssay AID264 (DTP/NCI, 2004).

Values joined by “and” are separate entries in the source; they are usually repeats but may differ in a detail not shown here. Equal entries are not always repeated. Records with an inconclusive call do not appear.

In this assay the test system is nude mice, LX-1 lung xenograft intrarenal, tumor weight T/C. As to the kind of experiment: NCI In Vivo Anticancer Drug Screen. Data for tumor model Human Lung LX-1 Xenograft (intrarenal inoculation) in NU/NU Swiss (nude) mice. Conditions: endpoint: mean tumor weight change, higher = larger tumour. As for the experimental part: The antitumor activity of compounds was measured in mice bearing transplantable tumors. Survival or tumor size were measured and the results are expressed as the measurement made in the treated group (T) divided by the measurement made in the vehicle treated control group (C). The tumor model used in this assay is Human Lung LX-1 Xenograft (intrarenal inoculation) in NU/NU Swiss (nude) mice
(A xenograft is tissue or cells of one species grown in another, often human tumour cells in immunodeficient mice.)

Setting [1] is: dose: 300.0 mg/kg/injection, schedule: Q04DX003 (sc), vehicle: suspension in saline.
[2] abbreviates: dose: 600.0 mg/kg/injection, schedule: Q04DX003 (sc), vehicle: suspension in saline.
[3] abbreviates: dose: 1.5 mg/kg/injection, schedule: Q04DX003 (sc), vehicle: Klucel (hydroxypropylcellulose) (HPC).
[4] abbreviates: dose: 3.0 mg/kg/injection, schedule: Q04DX003 (sc), vehicle: Klucel (hydroxypropylcellulose) (HPC).
The mark [5] stands for this setting: dose: 12.0 mg/kg/injection, schedule: Q04DX003 (sc), vehicle: Klucel (hydroxypropylcellulose) (HPC).
[6] abbreviates: dose: 48.0 mg/kg/injection, schedule: Q04DX003 (sc), vehicle: Klucel (hydroxypropylcellulose) (HPC).
[7] abbreviates: dose: 300.0 mg/kg/injection, schedule: Q04DX003 (sc), vehicle: Klucel (hydroxypropylcellulose) (HPC).
The mark [8] stands for this setting: dose: 600.0 mg/kg/injection, schedule: Q04DX003 (sc), vehicle: Klucel (hydroxypropylcellulose) (HPC).
The mark [9] stands for this setting: dose: 1200.0 mg/kg/injection, schedule: Q04DX003 (sc), vehicle: Klucel (hydroxypropylcellulose) (HPC).
The mark [10] stands for this setting: dose: 2400.0 mg/kg/injection, schedule: Q04DX003 (sc), vehicle: Klucel (hydroxypropylcellulose) (HPC).
[11] abbreviates: dose: 150.0 mg/kg/injection, schedule: Q04DX003 (sc), vehicle: saline with Tween-80.
[12] abbreviates: dose: 300.0 mg/kg/injection, schedule: Q04DX003 (sc), vehicle: saline with Tween-80.
Where [13] appears, read: dose: 600.0 mg/kg/injection, schedule: Q04DX003 (sc), vehicle: saline with Tween-80.

Turning to `O=c1[nH]cnc2[nH]ncc12`, the T/C runs as follows: (dose: 150.0 mg/kg/injection, schedule: Q04DX003 (sc), vehicle: suspension in saline) 88 % of control; under setting [1], 100 % of control; under setting [2], 61 % of control.

`C[CH2][Ge]1([CH2]C)[CH2]CC2(CCN(CCCN(C)C)C2)C[CH2]1`: for the setting “dose: 150.0 mg/kg/injection, schedule: Q04DX003 (sc), vehicle: saline”, the T/C was 89 % of control.

In the case of `O=C(O)c1ccc(C(=O)O)c(C(=O)O)c1.[NH-]C1CCCCC1[NH-].[Pt+2]`, the T/C by setting is: (dose: 3.12 mg/kg/injection, schedule: Q01DX010 (sc), vehicle: sodium bicarbonate) 101 % of control; (dose: 6.25 mg/kg/injection, schedule: Q01DX010 (sc), vehicle: sodium bicarbonate) 74 % of control.

For the compound `Cc1ccc2c(ccc(CC(=S)[S-])[n+]2C)c1`, the T/C by setting is: (dose: 50.0 mg/kg/injection, schedule: Q01DX010 (sc), vehicle: Klucel (hydroxypropylcellulose) (HPC)) 56 % of control; (dose: 100.0 mg/kg/injection, schedule: Q01DX010 (sc), vehicle: Klucel (hydroxypropylcellulose) (HPC)) 99 % of control; (dose: 200.0 mg/kg/injection, schedule: Q01DX010 (sc), vehicle: Klucel (hydroxypropylcellulose) (HPC)) 207 % of control; (dose: 400.0 mg/kg/injection, schedule: Q01DX010 (sc), vehicle: Klucel (hydroxypropylcellulose) (HPC)) 72 % of control.

Take `C[n+]1c(/C=C\C=C\N2CCCCC2)sc2ccccc21`: the T/C reads like this: under setting [3], 52 % of control; under setting [4], 83 % of control.

In the case of `CC1OC(=O)C(C(C)C)NC(=O)C(C(C)C)OC(=O)C(C(C)C)NC(=O)C(C)OC(=O)C(C(C)C)NC(=O)C(C(C)C)OC(=O)C(C(C)C)NC(=O)C(C)OC(=O)C(C(C)C)NC(=O)C(C(C)C)OC(=O)C(C(C)C)NC1=O` (stereo not drawn), the T/C reads like this: (dose: 5.0 mg/kg/injection, schedule: Q01DX010 (ip), vehicle: saline with Tween-80) 44 % of control; (dose: 5.0 mg/kg/injection, schedule: Q01DX010 (sc), vehicle: saline with Tween-80) 107 % of control; (dose: 10.0 mg/kg/injection, schedule: Q01DX010 (ip), vehicle: saline with Tween-80) 28 % of control; (dose: 16.66 mg/kg/injection, schedule: Q04DX003 (ip), vehicle: saline with Tween-80) 56 % of control; (dose: 16.66 mg/kg/injection, schedule: Q04DX003 (sc), vehicle: saline with Tween-80) 179 % of control; (dose: 33.33 mg/kg/injection, schedule: Q04DX003 (sc), vehicle: saline with Tween-80) 94 % of control. In addition, the T/C reads like this: (dose: 66.65 mg/kg/injection, schedule: Q04DX003 (ip), vehicle: saline with Tween-80) 37 % of control; (dose: 66.65 mg/kg/injection, schedule: Q04DX003 (sc), vehicle: saline with Tween-80) 119 % of control.

`CCN1/C(=C/C(C)=C/c2sc3ccc4ccccc4c3[n+]2CC)Sc2ccc3ccccc3c21`: the T/C is, setting by setting: (dose: 0.75 mg/kg/injection, schedule: Q04DX003 (sc), vehicle: Klucel (hydroxypropylcellulose) (HPC)) 67 % of control; under setting [3], 112 % of control; under setting [4], 76 % of control; (dose: 6.0 mg/kg/injection, schedule: Q04DX003 (sc), vehicle: Klucel (hydroxypropylcellulose) (HPC)) 96 % of control; under setting [5], 112 % of control; under setting [6], 81 % of control and 92 % of control.

Turning to `CCCCCC(=O)O[C@]1(C(C)=O)CC[C@H]2[C@@H]3CCC4=CC(=O)CC[C@]4(C)[C@H]3CC[C@@]21C`, the T/C under setting [7] is 91 % of control, the T/C under setting [8] was 112 % of control, the T/C under setting [9] was 103 % of control and the T/C under setting [10] was 84 % of control.

Regarding `CN1CCN(c2ccc([N+](=O)[O-])c3no[n+]([O-])c23)CC1`, the T/C under setting [11] was 73 % of control.

As for `O=C(C/C(=N\C(=S)Nc1cc(C(F)(F)F)ccc1Cl)NO)N1CCCC1`, the T/C under setting [12] was 70 % of control; the T/C under setting [13] was 120 % of control; the T/C (dose: 1200.0 mg/kg/injection, schedule: Q04DX003 (sc), vehicle: saline with Tween-80) was 104 % of control; the T/C (dose: 2400.0 mg/kg/injection, schedule: Q04DX003 (sc), vehicle: saline with Tween-80) is 106 % of control.

`Brc1ccc(C[N+]23CN4CN(CN(C4)C2)C3)cc1`: the T/C is, setting by setting: under setting [11], 91 % of control; under setting [12], 101 % of control; under setting [13], 76 % of control.

As to `O=C1OC(=O)[C@H]2[C@@H]1[C@H]1C=C[C@@H]2OC1=O`, the T/C runs as follows: under setting [1], 90 % of control; under setting [2], 104 % of control; (dose: 1200.0 mg/kg/injection, schedule: Q04DX003 (sc), vehicle: suspension in saline) 72 % of control.

For `CCC[CH2][Sn]1([CH2]CCC)[O]C2C(CO)OC(n3ccc(N)nc3=O)C2[O]1` (stereo not drawn), the T/C is 82 % of control under setting [5]; 66 % of control (dose: 24.0 mg/kg/injection, schedule: Q04DX003 (sc), vehicle: Klucel (hydroxypropylcellulose) (HPC)); 115 % of control under setting [6].

In the case of `CCC(=O)O[C@H]1CC[C@H]2[C@@H]3CCC4=CC(=O)CC[C@]4(C)[C@H]3CC[C@]12C`, the T/C runs as follows: under setting [7], 77 % of control; under setting [8], 59 % of control; under setting [9], 65 % of control; under setting [10], 69 % of control.

With `C1CCC2C[N-]CCC2C1.C1CCC2C[N-]CCC2C1.C1CCC2C[N-]CCC2C1.C1CCC2C[N-]CCC2C1.[Cl][Rh][Cl]` (stereo not drawn), the T/C runs as follows: (dose: 4.5 mg/kg/injection, schedule: Q04DX003 (sc), vehicle: saline with Tween-80) 64 % of control; (dose: 9.0 mg/kg/injection, schedule: Q04DX003 (sc), vehicle: saline with Tween-80) 89 % of control; (dose: 18.0 mg/kg/injection, schedule: Q04DX003 (sc), vehicle: saline with Tween-80) 63 % of control; (dose: 36.0 mg/kg/injection, schedule: Q04DX003 (sc), vehicle: saline with Tween-80) 60 % of control.

As to `COc1cc(OC)c(OC)cc1/C=C\c1ccnc2ccccc12`, the T/C by setting is: under setting [7], 62 % of control; under setting [8], 82 % of control; under setting [9], 90 % of control; under setting [10], 81 % of control.

Turning to `CCOC(=O)C(N)C[S][Sn]([CH3])([CH3])[Cl]` (stereo not drawn), the T/C is 52 % of control (dose: 18.75 mg/kg/injection, schedule: Q04DX003 (sc), vehicle: saline); 57 % of control (dose: 37.5 mg/kg/injection, schedule: Q04DX003 (sc), vehicle: saline); 54 % of control (dose: 75.0 mg/kg/injection, schedule: Q04DX003 (sc), vehicle: saline).

With `CC(=O)OC1C(O)C(C)OC(OC2C(OC(=O)C3CCC4C(C3)OC3(CC(OC(=O)/C=C/c5ccccc5)C(C)CO3)C43CO3)OC(C)C(O)C2OC(C)=O)C1O` (stereo not drawn), the T/C reads like this: (dose: 15.0 mg/kg/injection, schedule: Q04DX003 (sc), vehicle: distilled water + Tween-80) 114 % of control; (dose: 30.0 mg/kg/injection, schedule: Q04DX003 (sc), vehicle: distilled water + Tween-80) 121 % of control; (dose: 60.0 mg/kg/injection, schedule: Q04DX003 (sc), vehicle: distilled water + Tween-80) 162 % of control.

Consider `C/C=C1\C[C@@H]2C(OC)Nc3cc(O)c(OC)cc3C(=O)N2C1` (stereo partly drawn), for which the T/C by setting is: (dose: 0.5 mg/kg/injection, schedule: Q04DX003 (sc), vehicle: saline) 93 % of control; (dose: 1.0 mg/kg/injection, schedule: Q04DX003 (sc), vehicle: saline) 111 % of control; (dose: 2.0 mg/kg/injection, schedule: Q04DX003 (sc), vehicle: saline) 107 % of control; (dose: 4.0 mg/kg/injection, schedule: Q04DX003 (sc), vehicle: saline) 96 % of control.

Consider `Nc1n[n+](-c2ccccc2)no1`, for which the T/C was 87 % of control (dose: 37.5 mg/kg/injection, schedule: Q04DX003 (sc), vehicle: water) and 89 % of control (dose: 75.0 mg/kg/injection, schedule: Q04DX003 (sc), vehicle: water).
